Measurements taken from paper PMC7756341, “Liposomal FRET Assay Identifies Potent Drug‐Like Inhibitors of the Ceramide Transport Protein (CERT)” (Chemistry (Weinheim an Der Bergstrasse, Germany), 2020).
Values joined by “and” are separate entries in the source; they are usually repeats but may differ in a detail not shown here. Equal entries are not always repeated.

System: HeLa cells
Experiment: Sphingolipid content of treated HeLa cells by quantitative mass spectrometry
Assay type: cell-based
Settings: for Cer16 / Cer18 / Cer20 / Cer22 / Cer24 / Cer24:1 / Cer total / S1P / SM16 / SM18 / SM20 / SM22 / SM24 / SM24:1 / SM total / Sph / ratio total SM/Cer: HeLa, 42h, single replicates; for Cer16 / Cer18 / Cer20 / Cer22 / Cer24 / Cer24:1 / Cer total / S1P / SM16 / SM18 / SM20 / SM22 / SM24 / SM24:1 / SM total / Sph: 500.000 cells per sample
Description: 5.2 Cellular experiment for lipidomic analysis
Hela cells were cultured in six well plates (177000 cells per well) under standard growth conditions (DMEM with 4mM L-glutamine, 10% FBS, 1% Penicillin-Streptomycin; CO2 incubator with […]
37°C, 5% CO2). […]
After incubation, […]
the adherent cells were washed twice with ice-cold PBS and harvested by treatment with trypsin.
Cells were counted using a Countess II cell counter ( Invitrogen) and adjusted to 500.000 cells per sample. Each sample was then treated as described below.
6. Details for experimental lipidomics
Cells were subjected to lipid extraction using 1.5 mL methanol/chloroform (2:1, v:v) as described. The extraction solvent contained C17-ceramide (Cer17) and C16 -d31-sphingomyelin (d31-SM16) (both Avanti Polar Lipids, Alabaster, USA) as internal standards. Chromatographic separations were achieved on a 1260 Infinity HPLC (Agilent Technologies, Waldbronn, Germany) equipped with a Poroshell 120 EC-C8 column (3.0 × 150 mm, 2.7 µm; Agilent Technologies). A mobile phase system consisting of water (solvent A) and acetonitrile/methanol (1:1, v:v; solvent B), both acidified with 0.1% formic acid, was used for gradient elution at an initial composition of 40:60 (A:B, v:v) and a flow rate of 0.5 mL/min. MS/MS analyses were carried out using a 6490 triple-quadrupole mass spectrometer (Agilent Technologies) operating in the positive electrospray ionization mode (ESI+). The following ion source parameters were set: sheath gas temperature, 375 °C; sheath gas flow, 12 L/min of nitrogen; nebulizer pressure, 30 psi; drying gas temperature, 200 °C; drying gas flow, 15 L/min of nitrogen; capillary voltage, 4000 V; nozzle voltage, 1500 V; iFunnel high pressure RF voltage, 150 V and iFunnel low pressure RF voltage, 60 V. The following mass transitions were recorded (collision energies of 25 eV for all transitions): ceramides: m/z […]
with MassHunter Software (Agilent Technologies). Significance of differences between two samples was calculated by student’s t -test. Asterisks indicate significant differences between treated and untreated samples: * p<0.05; ** p<0.01; *** p<0.005.
Table S1. Sphingolipid content of treated cells.
(1 picture or pasted object on this page, not shown here)

**Q.** Which “effect on sphingomyelin at 5 μM” value (HeLa cells, 5 μM) does the source give for O=C(NC1CCN(CCCCC2(C(=O)NCC(F)(F)F)c3ccccc3-c3ccccc32)CC1)c1ccccc1-c1ccc(C(F)(F)F)cc1 [8E8, lomitapide] here?
**A.** drastic reduction

**Q.** What about the “effect on total sphingomyelin” value (HeLa cells, 48 hours, serum-reduced medium) of the same compound?
**A.** dose‐dependent reduction

**Q.** And the “potency on relation of total sphingomyelin to ceramide compared to HPA-12” value (HeLa cells, all concentrations)?
**A.** increased potency

**Q.** And the Cer16 (1 µM)?
**A.** 66,02 pmol/sample and 57,09 pmol/sample and 60,15 pmol/sample

**Q.** What about the Cer18 (1 µM) of the same compound?
**A.** 7,66 pmol/sample and 6,67 pmol/sample and 6,95 pmol/sample

**Q.** And the Cer20 (1 µM)?
**A.** 2,25 pmol/sample and 1,77 pmol/sample and 2,84 pmol/sample

**Q.** What about the Cer22 (1 µM) of the same compound?
**A.** 14,47 pmol/sample and 13,05 pmol/sample and 13,35 pmol/sample

**Q.** What about the Cer24 (1 µM) of the same compound?
**A.** 34,96 pmol/sample and 30,93 pmol/sample and 30,90 pmol/sample

**Q.** And the “Cer24:1” value (1 µM)?
**A.** 73,09 pmol/sample and 65,48 pmol/sample and 68,22 pmol/sample

**Q.** What about the Cer total (1 µM) of the same compound?
**A.** 198,45 pmol/sample and 178,06 pmol/sample and 179,34 pmol/sample

**Q.** What about the S1P (1 µM) of the same compound?
**A.** 1,12 pmol/sample and 1,00 pmol/sample and 0,85 pmol/sample

**Q.** What about the SM16 (1 µM) of the same compound?
**A.** 1825,61 pmol/sample and 1823,48 pmol/sample and 1739,12 pmol/sample

**Q.** What about the SM18 (1 µM) of the same compound?
**A.** 59,37 pmol/sample and 58,79 pmol/sample and 52,57 pmol/sample

**Q.** What about the SM20 (1 µM) of the same compound?
**A.** 20,60 pmol/sample and 20,35 pmol/sample and 17,81 pmol/sample

**Q.** And the SM22 (1 µM)?
**A.** 115,26 pmol/sample and 124,65 pmol/sample and 105,99 pmol/sample

**Q.** And the SM24 (1 µM)?
**A.** 173,05 pmol/sample and 183,46 pmol/sample and 158,17 pmol/sample

**Q.** What about the “SM24:1” value (1 µM) of the same compound?
**A.** 817,85 pmol/sample and 842,40 pmol/sample and 760,17 pmol/sample

**Q.** What about the SM total (1 µM) of the same compound?
**A.** 3011,74 pmol/sample and 3053,13 pmol/sample and 2833,83 pmol/sample

**Q.** And the Sph (1 µM)?
**A.** 3,57 pmol/sample and 3,81 pmol/sample and 3,42 pmol/sample

**Q.** What about the “ratio total SM/Cer” value (1 µM) of the same compound?
**A.** 16,8 and 15,4 and 15,9

**Q.** And the Cer16 (2.5 µM)?
**A.** 74,51 pmol/sample and 82,98 pmol/sample and 79,41 pmol/sample

**Q.** What about the Cer18 (2.5 µM) of the same compound?
**A.** 8,90 pmol/sample and 10,02 pmol/sample and 9,50 pmol/sample

**Q.** And the Cer20 (2.5 µM)?
**A.** 2,09 pmol/sample and 2,26 pmol/sample and 2,11 pmol/sample

**Q.** What about the Cer22 (2.5 µM) of the same compound?
**A.** 14,83 pmol/sample and 17,07 pmol/sample and 15,69 pmol/sample

**Q.** And the Cer24 (2.5 µM)?
**A.** 32,62 pmol/sample and 36,00 pmol/sample and 36,33 pmol/sample

**Q.** And the “Cer24:1” value (2.5 µM)?
**A.** 74,15 pmol/sample and 79,98 pmol/sample and 77,75 pmol/sample

**Q.** And the Cer total (2.5 µM)?
**A.** 207,10 pmol/sample and 228,30 pmol/sample and 220,79 pmol/sample

**Q.** And the S1P (2.5 µM)?
**A.** 0,75 pmol/sample and 1,06 pmol/sample and 1,09 pmol/sample

**Q.** And the SM16 (2.5 µM)?
**A.** 1630,84 pmol/sample and 1823,72 pmol/sample and 1666,50 pmol/sample

**Q.** What about the SM18 (2.5 µM) of the same compound?
**A.** 53,11 pmol/sample and 57,73 pmol/sample and 55,13 pmol/sample

**Q.** What about the SM20 (2.5 µM) of the same compound?
**A.** 19,44 pmol/sample and 21,11 pmol/sample and 18,70 pmol/sample

**Q.** And the SM22 (2.5 µM)?
**A.** 103,91 pmol/sample and 113,22 pmol/sample and 105,74 pmol/sample

**Q.** What about the SM24 (2.5 µM) of the same compound?
**A.** 157,53 pmol/sample and 168,83 pmol/sample and 156,81 pmol/sample

**Q.** What about the “SM24:1” value (2.5 µM) of the same compound?
**A.** 722,25 pmol/sample and 731,59 pmol/sample and 797,90 pmol/sample

**Q.** And the SM total (2.5 µM)?
**A.** 2725,14 pmol/sample and 2696,43 pmol/sample and 2982,51 pmol/sample

**Q.** What about the Sph (2.5 µM) of the same compound?
**A.** 3,63 pmol/sample and 3,39 pmol/sample and 3,50 pmol/sample

**Q.** And the “ratio total SM/Cer” value (2.5 µM)?
**A.** 12,3 and 13,0 and 13,1

**Q.** And the Cer16 (5 µM)?
**A.** 89,79 pmol/sample and 129,48 pmol/sample and 69,03 pmol/sample

**Q.** What about the Cer18 (5 µM) of the same compound?
**A.** 7,26 pmol/sample and 11,79 pmol/sample and 5,12 pmol/sample

**Q.** And the Cer20 (5 µM)?
**A.** 1,69 pmol/sample and 2,84 pmol/sample and 1,31 pmol/sample

**Q.** What about the Cer22 (5 µM) of the same compound?
**A.** 12,62 pmol/sample and 18,55 pmol/sample and 9,43 pmol/sample

**Q.** And the Cer24 (5 µM)?
**A.** 22,56 pmol/sample and 31,76 pmol/sample and 18,74 pmol/sample

**Q.** And the “Cer24:1” value (5 µM)?
**A.** 66,19 pmol/sample and 87,40 pmol/sample and 47,19 pmol/sample

**Q.** What about the Cer total (5 µM) of the same compound?
**A.** 200,11 pmol/sample and 281,82 pmol/sample and 150,81 pmol/sample

**Q.** What about the S1P (5 µM) of the same compound?
**A.** 0,37 pmol/sample and 0,42 pmol/sample and 0,53 pmol/sample

**Q.** And the SM16 (5 µM)?
**A.** 450,01 pmol/sample and 691,68 pmol/sample and 345,52 pmol/sample

**Q.** What about the SM18 (5 µM) of the same compound?
**A.** 25,94 pmol/sample and 35,37 pmol/sample and 18,65 pmol/sample

**Q.** And the SM20 (5 µM)?
**A.** 8,48 pmol/sample and 11,39 pmol/sample and 5,85 pmol/sample

**Q.** And the SM22 (5 µM)?
**A.** 36,80 pmol/sample and 52,48 pmol/sample and 26,91 pmol/sample

**Q.** What about the SM24 (5 µM) of the same compound?
**A.** 50,34 pmol/sample and 70,92 pmol/sample and 33,38 pmol/sample

**Q.** What about the “SM24:1” value (5 µM) of the same compound?
**A.** 200,60 pmol/sample and 298,06 pmol/sample and 137,99 pmol/sample

**Q.** What about the SM total (5 µM) of the same compound?
**A.** 772,16 pmol/sample and 1159,90 pmol/sample and 568,29 pmol/sample

**Q.** What about the Sph (5 µM) of the same compound?
**A.** 3,46 pmol/sample and 3,80 pmol/sample and 3,91 pmol/sample

**Q.** And the “ratio total SM/Cer” value (5 µM)?
**A.** 3,9 and 4,1 and 3,8
